Measurements published in article PMC9676650, “Binding pocket stabilization by high-throughput screening of yeast display libraries” (Frontiers in Molecular Biosciences, 2022).
Residue numbers refer to the chain shown, from its start. Where “and” joins values, the source holds several entries; their conditions need not be identical. Identical values can stand only once.

Legend:
[1] = biological target: T1, FKBP51 variant G64A (Homo sapiens, UniProt Q13451, G64A); test: Fluorescence polarization tracer binding, FKBP51 G64A; conditions: for Fold change in Kd improvement: FKBP51 G64A compared to WT; for Kd: FKBP51 G64A, 0.5 nM SAFit-FL, 5 nM Mcyc-TA or 1 nM FK [431]-TA, 30 min room temperature
T1 construct: made in house; host or cells: E. coli BL21 (DE3)
T1 sequence (Q13451 1-140 G64A): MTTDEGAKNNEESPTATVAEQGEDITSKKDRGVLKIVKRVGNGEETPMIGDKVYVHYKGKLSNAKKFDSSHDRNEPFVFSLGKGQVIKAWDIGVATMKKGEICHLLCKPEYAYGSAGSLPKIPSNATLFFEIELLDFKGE
Description: (§1) All ligands and tracers used for fluorescence polarization assays had purities of more than 95%. The following ligands and tracers were used for fluorescence polarization and FACS screening experiments: •SAFit-FL tracer (1): Fluorescein conjugated analog of the iFit ligand class. •Mcyc-TA tracer (2): TAMRA conjugated macrocyclic ligand (5). •FK [431]-TA tracer (3): TAMRA conjugated FK [431] ligand (6). •SAFit1 ligand (4): analog of the iFit ligand class. •macrocyclic ligand (5):macrocyclic analog of the SAFit class ligands. •FK [431] ligand (6):bicyclic analog of the immunosuppressive drug FK506
(§2) The binding of the generated FKBP51 variants to different conformation-sensitive FKBP ligands was investigated by fluorescence polarization assays. Therefore, a serial dilution of the respective FKBP51 variant in assay buffer (20 mM HEPES pH 8.0, 150 mM NaCl, 0.015% Triton X-100) was placed in a 384-well assay plate and a defined amount of the respective fluorescent tracer (0.5 nM of the SAFit based tracer SAFit-FL (1), 5 nM of the macrocyclic tracer Mcyc-TA 2) or 1 nM of the FK [431]-TA 3) in assay buffer was added to the protein buffer mixture. After incubation for 30 min at room temperature, the fluorescence polarization was measured with a plate reader. The obtained results for each 3 independent experiments were normalized with respect to the maximal binding signal and fitted to a one-site binding model as described by [Wang et al., 1992] yielding the respective binding constants. tracer bound=100/Lt×0.5×(Rt+Lt+KD−(Rt+Lt+KD)^2−4×LtRt) With L t , total concentration of the tracer, R t , total concentration of the receptor and K D binding constant of the complex RL.

[2] = biological target: T2, FKBP51 variant G64E (Homo sapiens, UniProt Q13451, G64E); test: Fluorescence polarization tracer binding, FKBP51 G64E; conditions: for Fold change in Kd improvement: FKBP51 G64E compared to WT; for Kd: FKBP51 G64E, 0.5 nM SAFit-FL, 5 nM Mcyc-TA or 1 nM FK [431]-TA, 30 min room temperature
T2 construct: made in house; host or cells: E. coli BL21 (DE3)
T2 sequence (Q13451 1-140 G64E): T1 sequence (Q13451 1-140 G64A) with A64E
Description: as §1, §2

[3] = biological target: T3, FKBP51 variant G64R (Homo sapiens, UniProt Q13451, G64R); test: Fluorescence polarization tracer binding, FKBP51 G64R; conditions: for Fold change in Kd improvement: FKBP51 G64R compared to WT; for Kd: FKBP51 G64R, 0.5 nM SAFit-FL, 5 nM Mcyc-TA or 1 nM FK [431]-TA, 30 min room temperature
T3 construct: made in house; host or cells: E. coli BL21 (DE3)
T3 sequence (Q13451 1-140 G64R): T1 sequence (Q13451 1-140 G64A) with A64R
Description: as §1, §2

[4] = biological target: T4, FKBP51 variant D68N (Homo sapiens, UniProt Q13451, D68N); test: Fluorescence polarization tracer binding, FKBP51 D68N; conditions: for Fold change in Kd improvement: FKBP51 D68N compared to WT; for Kd: FKBP51 D68N, 0.5 nM SAFit-FL, 5 nM Mcyc-TA or 1 nM FK [431]-TA, 30 min room temperature
T4 construct: made in house; host or cells: E. coli BL21 (DE3)
T4 sequence (Q13451 1-140 D68N): T1 sequence (Q13451 1-140 G64A) with A64G, D68N
Description: as §1, §2

[5] = biological target: T5, FKBP51 variant D68Y (Homo sapiens, UniProt Q13451, D68Y); test: Fluorescence polarization tracer binding, FKBP51 D68Y; conditions: for Fold change in Kd improvement: FKBP51 D68Y compared to WT; for Kd: FKBP51 D68Y, 0.5 nM SAFit-FL, 5 nM Mcyc-TA or 1 nM FK [431]-TA, 30 min room temperature
T5 construct: made in house; host or cells: E. coli BL21 (DE3)
T5 sequence (Q13451 1-140 D68Y): T1 sequence (Q13451 1-140 G64A) with A64G, D68Y
Description: as §1, §2

[6] = biological target: T6, FKBP51 variant N63A (Homo sapiens, UniProt Q13451, N63A); test: Fluorescence polarization tracer binding, FKBP51 N63A; conditions: for Fold change in Kd improvement: FKBP51 N63A compared to WT; for Kd: FKBP51 N63A, 0.5 nM SAFit-FL, 5 nM Mcyc-TA or 1 nM FK [431]-TA, 30 min room temperature
T6 construct: made in house; host or cells: E. coli BL21 (DE3)
T6 sequence (Q13451 1-140 N63A): T1 sequence (Q13451 1-140 G64A) with N63A, A64G
Description: as §1, §2

[7] = biological target: T7, FKBP51 variant G64D (Homo sapiens, UniProt Q13451, G64D); test: Fluorescence polarization tracer binding, FKBP51 G64D; conditions: for Fold change in Kd improvement: FKBP51 G64D compared to WT; for Kd: FKBP51 G64D, 0.5 nM SAFit-FL, 5 nM Mcyc-TA or 1 nM FK [431]-TA, 30 min room temperature
T7 construct: made in house; host or cells: E. coli BL21 (DE3)
T7 sequence (Q13451 1-140 G64D): T1 sequence (Q13451 1-140 G64A) with A64D
Description: as §1, §2

[8] = biological target: T8, FKBP51 WT (FK1 domain) (Homo sapiens, UniProt Q13451); test: Fluorescence polarization tracer binding, FKBP51 WT; conditions: for Fold change in Kd improvement: FKBP51 WT (reference); for Kd: FKBP51 WT, 0.5 nM SAFit-FL, 5 nM Mcyc-TA or 1 nM FK [431]-TA, 30 min room temperature, 3 independent experiments
T8 construct: made in house; host or cells: E. coli BL21 (DE3)
T8 sequence (Q13451 1-140): T1 sequence (Q13451 1-140 G64A) with A64G
Description: as §1, §2

CN(C)c1ccc2c(-c3cc(C(=O)NCCn4cc([C@H]5CN(Cc6ccccn6)C(=O)[C@@H]6CCC[C@H]5N6S(=O)(=O)c5cc(Cl)cc(Cl)c5)nn4)ccc3C(=O)O)c3ccc(=[N+](C)C)cc-3oc2c1 [FK [431]-TA]
Fold change in Kd improvement [1]: 0.084 fold | Kd [1]: 61 ± 2 nM | Fold change in Kd improvement [2]: 0.268 fold | Kd [2]: 19 ± 1 nM | Fold change in Kd improvement [3]: 0.159 fold | Kd [3]: 32 ± 2 nM | Fold change in Kd improvement [4]: 0.035 fold | Kd [4]: 146 ± 6 nM | Fold change in Kd improvement [5]: 0.134 fold | Fold change in Kd improvement ([5]; listed as 3): no improvement | Kd [5]: 38 ± 2 nM | Fold change in Kd improvement [6]: 0.850 fold | Kd [6]: 6 ± 0.2 nM | Fold change in Kd improvement [7]: 0.300 fold | Kd [7]: 17 ± 1 nM | Fold change in Kd improvement [8]: 1 fold | Kd [8]: 5.1 ± 0.1 nM

COc1ccc(CC[C@H]2OC(=O)[C@@H]3CCCCN3C(=O)[C@@H](C3CCCCC3)NC(=O)C(C)(C)NC(=O)COc3cc(OCCNC(=O)c4ccc(C(=O)O)c(-c5c6ccc(=[N+](C)C)cc-6oc6cc(N(C)C)ccc56)c4)cc2c3)cc1OC [Mcyc-TA]
Fold change in Kd improvement [1]: 5.71 fold | Kd [1]: 4.2 ± 0.5 nM | Fold change in Kd improvement [2]: 7.27 fold | Kd [2]: 3.3 ± 0.3 nM | Fold change in Kd improvement [3]: 2.42 fold | Kd [3]: 9.9 ± 1 nM | Fold change in Kd improvement [4]: 4.00 fold | Kd [4]: 6 ± 1 nM | Fold change in Kd improvement [5]: 34 fold and 34.29 fold | Kd [5]: 0.7 ± 0.1 nM | Fold change in Kd improvement [6]: 5.58 fold | Kd [6]: 4.3 ± 0.5 nM | Fold change in Kd improvement [7]: 2.76 fold | Kd [7]: 8.7 ± 1 nM | Fold change in Kd improvement [8]: 1.00 fold | Kd [8]: 24 ± 2 nM
